Measured values as given in patent US12629419B2, “Prevention or mitigation of T-cell engaging agent-related adverse effects” (Hoffmann-La Roche Inc., priority 2020, dated 2026).
“Also recorded” adds a separate entry of the source.

Tests used:
[1] = tested on: WSU DLCL2 tumor cells; assay: killing assay with PBMCs, CTV labelled WSU DLCL2 tumor cells and CD20-TCB; assay type: cell-based; conditions: 24 h; for CD20-TCB-mediated target cell killing: 1 nM CD20-TCB, inhibitor 0 nM to 1000 nM; for killing of B cells: WSU cells with PBMCs, CD20-TCB, fixed compound concentrations
Method: FIG. 13. In vitro killing assay set-up.
FIG. 14. […] At 24 hours, the tumor cells and PBMCs from technical replicates were pooled and stained with a LIVE/DEAD™ Near-IR dead cell dye to allow exclusion of dead CTV labelled WSU DLCL2 tumor cells by flow cytometry. Mean of n=3 donors+/−SEM.
A similar experiment was conducted with another TCB. WSU DLCL2 cells were co-cultured together with PBMCs in the presence of 1 nM CD20-TCB (SEQ ID NOs 4-11, 24-35), and escalating sirolimus doses ranging from 0 nM to 1000 nM (FIG. 13).
A similar experiment was conducted with another TCB. […] The killing of B cells was measured as a readout for the impact of the various compounds on TCB efficacy at 24 h (FIGS. 27 and 28). […] Lastly, the levels of cytokines (TNF-α, IFN-γ, IL-2, IL-6, IL-4, IL-10, GM-CSF and IL-1β) were analyzed by Luminex at assay endpoint to assess the impact of the different treatments on TCB-induced cytokine release (FIGS. 32 and 33).
At 24 hours, tumor cell killing was measured by flow cytometry by exclusion of dead CTV cells. The supernatants were collected and cytokines were measured by Luminex.

[2] = tested on: MAGEA4-TCB-induced cytokine release; assay: MAGEA4-TCB-induced cytokine release; assay type: cell-based; conditions: 8 nM MAGEA4-TCB, 72 hours
Method: FIG. 45. Effect of escalating concentrations (c) of ruxolitinib on IFN-γ (A), IL-2 (B), TNF-α (C), GM-CSF (D), IL-6 (E), IL-1β (F), IL-8 (G), MCP-1 (H) and IL-10 (I) levels induced by 8 nM MAGEA4-TCB. At 72 hours, the supernatants were collected and cytokines were analyzed by cytometric bead array (CBA). Mean of technical replicates+/−SD for 1 representative donor.
FIG. 47. […] At 72 hours, the supernatants were collected and cytokines were analyzed by CBA. Mean of technical replicates+/−SD for 1 representative donor.
The effect of ruxolitinib on TCB-induced tumor cell killing and cytokine release was assessed using an additional TCB, the MAGEA4-TCB (SEQ ID NOs 37-56).

[3] = tested on: NALM-6 tumors cells; assay: CD19-TCB killing assay with NALM-6 cells, inhibitors added after 24 hrs of activation: killing; assay type: cell-based; conditions: 100 nM added at 24 hrs; measured at 48 hrs
Method: (§1) FIG. 78. In vitro killing assay set-up. PBMCs were co-cultured with CTV labelled NALM-6 cells (E:T=10:1) in the presence of escalating concentrations of CD19-TCB for 24 hrs. At 24 hrs, the culture medium was supplemented with 100 nM dasatinib, 100 nM sirolimus or 100 nM ruxolitinib.
(§2) To assess whether the mTOR inhibitor sirolimus, the JAK1/2 inhibitor ruxolitinib and the Src inhibitor dasatinib can prevent further release of cytokines induced by the treatment of CD19-TCB, they were added in an in vitro killing assay after 24 hrs of activation (FIG. 78). In this assay CTV labelled NALM-6 tumors cells were co-cultured with PBMCs in the presence of escalating doses of CD19-TCB for 24 hrs. At 24 hrs, 100 nM ruxolitinib, 100 nM sirolimus or 100 nM dasatinib were added in the system. To verify if T cells were activated before the addition of the different kinase inhibitors, tumor cell killing and cytokine release were measured at 24 hrs (FIGS. 79 and 80). Lastly, cytokine release and tumor cell killing were measured at 48 hrs to assess the effect of the addition of 100 nM ruxolitinib, 100 nM sirolimus or 100 nM dasatinib on CD19-TCB-induced cytokine release as compared to the effect on killing.

[4] = tested on: CD20+ B cells; assay: CD19-TCB-induced B cell depletion in humanized NSG mice; assay type: in vivo; conditions: for CD19-TCB-induced B cell depletion in blood: co-treatment with 0.5 mg/kg CD19-TCB; for CD19-TCB-induced CD20+ B cell depletion in the spleen: 72 hrs (termination)
Source text: FIG. 81. In vivo experiment timelines and dosing schedule.
To best reproduce the pharmacodynamic profile of ruxolitinib, dasatinib and sirolimus in the clinic and to verify whether the resulting exposure would be sufficient to prevent CD19-TCB-induced cytokine release, dasatinib and ruxolitinib were given per os twice per day, and sirolimus was given per os twice per day on day 1 and then once per day.
At 48 hrs and 72 hrs, blood was collected by tail-vein bleeding and the CD20+ B cell count was measured by flow cytometry (FIGS. 82A and B) to assess the effect of the different treatments on CD19-TCB-induced B cell depletion. […] Its half-life being around 6-7 hrs and dasatinib being given only twice per day, a lack of exposure could likely explain that CD19-TCB was partially active, resulting in B cell depletion. At experiment termination (72 hrs), spleens were collected and the B cell count was measured by flow-cytometry (FIG. 83). […] However, their inhibitory effect was stronger than methylprednisolone (FIG. 83).

[5] = tested on: CD19-TCB-induced cytokine release; assay: CD19-TCB NALM-6 assay, inhibitors added after 24 hrs: cytokine release; assay type: cell-based; conditions: 100 nM added at 24 hrs; between 24 hrs and 48 hrs
Method: as §1, §2

[6] = tested on: CD19+ B cells; assay: CD20-TCB-induced B cell depletion in non-tumor bearing humanized NSG mice; assay type: in vivo; conditions: 48 and 72 hours; 0.15 mg/kg CD20-TCB; p.o. 2, 5, 10 mg/kg sirolimus, 10 mg/kg everolimus, 10 mg/kg temsirolimus, ruxolitinib
Method: FIG. 95. In vivo experiment timelines and dosing schedule.
FIG. 96. […] The proportion of CD19+ B cells among human CD45+(huCD45) cells was measured by flow cytometry in the blood collected 48 hrs and 72 hrs post-treatment with CD20-TCB. Mean of n=4 mice or n=3 mice (everolimus group)+/−SEM. The statistical comparison to the vehicle group is summarized table (C) where the p values were calculated by Kruskal-Wallis test.
Different doses of mTOR, JAK and Src kinase inhibitors were tested to determine the optimal dose that reduces CD20-TCB-induced cytokine release while minimally interfering with B cell depletion. […] The doses of 30 and 60 mg/kg were tested for ruxolitinib and the doses of 10 and 50 mg/kg were tested for dasatinib. To reproduce the clinical route of administration, the different kinase inhibitors were given orally (p.o.) once or twice per day as depicted in FIG. 95. Mice were bled 4 hours and 24 hours after the treatment with CD20-TCB (FIG. 95) to collect serum for cytokine level measurements by Luminex. Additionally, blood was collected 48 hours and 72 hours (termination) post treatment with CD20-TCB to measure the percentage of CD19+ B cells among human CD45+ cells by flow cytometry (FIG. 95).

[7] = 48 hrs, p.o.: 6×30 mg/kg ruxolitinib, 4×5 mg/kg sirolimus, dexamethasone, methylprednisolone
[8] = 72 hrs, dasatinib 6×50 mg/kg p.o.

Compound | CD20-TCB-mediated target cell killing [1] | killing of B cells [1] | levels of GM-CSF and IL-2 [2] | levels of IFN-γ, TNF-α, IL-8, IL-6, MCP-1, IL-10 and IL-1β ([2]; with increasing concentrations) | CTV labelled NALM-6 tumor cell killing [3] | CD19-TCB-induced B cell depletion in blood [4, 7] | CD19-TCB-induced CD20+ B cell depletion in the spleen [4] | CD19-TCB-induced B cell depletion in blood [4, 8] | further release of IFN-γ, TNF-α and IL-6 [5] | B cell depletion induced by CD20-TCB (percentage of CD19+ B cells among human CD45+ cells in peripheral blood) [6] | levels of IFN-γ, IL-2, TNF-α, IL-8, IL-6, MCP-1 and IL-10 ([2]; with increasing concentrations) | further release of IFN-γ, TNF-α, IL-2 and IL-6 [5]
N#CC[C@H](C1CCCC1)n1cc(-c2ncnc3[nH]ccc23)cn1 [ruxolitinib, Ruxolitinib] | did not fully inhibit | did neither prevent | not impacted | reduced | did not prevent | slightly prevented | only partially prevented | comparable to the effect dexamethasone | only prevented further release | slightly interfered; also recorded: minimally interfered |  | 
CO[C@H]1C[C@@H]2CC[C@@H](C)[C@@](O)(O2)C(=O)C(=O)N2CCCC[C@H]2C(=O)O[C@H]([C@H](C)C[C@@H]2CC[C@@H](O)[C@H](OC)C2)CC(=O)[C@H](C)/C=C(\C)[C@@H](O)[C@@H](OC)C(=O)[C@H](C)C[C@H](C)/C=C/C=C/C=C/1C [sirolimus, Sirolimus] | did not fully inhibit | did neither prevent |  |  | did not prevent | slightly prevented | only partially prevented | comparable to the effect dexamethasone |  | did not interfere; also recorded: minimally interfered | reduced | prevented further release
CO[C@H]1C[C@@H]2CC[C@@H](C)[C@@](O)(O2)C(=O)C(=O)N2CCCC[C@H]2C(=O)O[C@H]([C@H](C)C[C@@H]2CC[C@@H](OC(=O)C(C)(CO)CO)[C@H](OC)C2)CC(=O)[C@H](C)/C=C(\C)[C@@H](O)[C@@H](OC)C(=O)[C@H](C)C[C@H](C)/C=C/C=C/C=C/1C [temsirolimus, Temsirolimus] | did not fully inhibit | did neither prevent |  |  |  |  |  |  |  | did not interfere; also recorded: minimally interfered | reduced | 
CO[C@H]1C[C@@H]2CC[C@@H](C)[C@@](O)(O2)C(=O)C(=O)N2CCCC[C@H]2C(=O)O[C@H]([C@H](C)C[C@@H]2CC[C@@H](OCCO)[C@H](OC)C2)CC(=O)[C@H](C)/C=C(\C)[C@@H](O)[C@@H](OC)C(=O)[C@H](C)C[C@H](C)/C=C/C=C/C=C/1C [everolimus, Everolimus] | did not fully inhibit | did neither prevent |  |  |  |  |  |  |  | did not interfere; also recorded: minimally interfered | reduced | 
